Assay results reported in publication doi:10.1101/2023.02.14.528348v1, “Plasticity of the binding pocket in peptide transporters underpins promiscuous substrate recognition” (biorxiv, 2023).
Marks after values point to notes of the source that are not given here. Each block holds one compound with its values, some of them ahead of it. Residues, ends and D or L forms follow the SMILES beside them.

Legend:
DtpB [1] = biological target: T1, DtpB (Escherichia coli, UniProt P36837); test: thermal unfolding titration, irreversible kinetic (Hall) model; also co-crystal structure; format: binding; settings: purified protein
T1 construct: purified membrane protein; reconstituted in liposomes for transport; Nb132 complex for crystals; host, tags and borders only in supplement
T1 sequence (P36837 1-489): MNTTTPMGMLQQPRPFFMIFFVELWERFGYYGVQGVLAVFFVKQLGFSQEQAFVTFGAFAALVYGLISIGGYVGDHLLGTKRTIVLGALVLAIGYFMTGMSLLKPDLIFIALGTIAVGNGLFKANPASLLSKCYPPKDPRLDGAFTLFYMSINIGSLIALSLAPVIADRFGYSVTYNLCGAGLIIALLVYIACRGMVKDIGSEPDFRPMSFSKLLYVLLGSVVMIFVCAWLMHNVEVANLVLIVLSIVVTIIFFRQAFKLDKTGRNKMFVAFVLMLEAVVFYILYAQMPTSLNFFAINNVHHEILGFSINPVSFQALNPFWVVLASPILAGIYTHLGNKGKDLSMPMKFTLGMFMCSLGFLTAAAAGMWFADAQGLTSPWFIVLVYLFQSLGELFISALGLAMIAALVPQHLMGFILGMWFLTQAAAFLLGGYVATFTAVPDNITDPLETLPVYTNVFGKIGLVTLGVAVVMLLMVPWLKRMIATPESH

DtpB [2] = biological target: T1, DtpB; test: inhibition of AA transport, pyranine fluorescence assay in proteoliposomes; format: biochemical
DtpB [3] = biological target: T1, DtpB; test: as above; format: biochemical; remark: listed apart in the source
DtpB [4] = biological target: T1, DtpB; test: thermal unfolding titration, irreversible kinetic (Hall) model; format: binding
DtpB [5] = biological target: T1, DtpB; test: X-ray crystal structure of complex; format: binding; settings: crystallised with nanobody Nb132; inward-facing open; central cavity

SMILES: CC[C@H](C)[C@H](NC(=O)[C@H](C)N)C(=O)O [AI, Ala-Ile] (H-Ala-Ile-OH)
- X-ray crystal structure of complex (DtpB [5]): Structure of DtpB bound to nanobody Nb132 and the dipeptide AI

SMILES: CC(C)[C@H](NC(=O)[C@@H](N)CCCCN)C(=O)O [KV, Lys-Val] (H-Lys-Val-OH)
- X-ray crystal structure of complex (DtpB [5]): Q34 interacts with the ε-amino group of K1* in KV

SMILES: O=C(O)[C@H](Cc1ccc(O)cc1)NC(=O)[C@@H]1CCCN1 [PY] (H-Pro-Tyr-OH)
- Kd (DtpB [4]): 206 ± 126 µM

SMILES: N[C@@H](CO)C(=O)N[C@@H](Cc1c[nH]cn1)C(=O)O [SH] (H-Ser-His-OH)
- Kd (DtpB [4]): 352 ± 38 µM

Further lines, with some results ahead:

- IC50 (DtpB [2]): 2370 ± 680 µM
- Ki (DtpB [3]): 250 ± 80 µM
SMILES: C[C@H](N)C(=O)N[C@@H](Cc1ccccc1)C(=O)O [AF, Ala-Phe]
- KD (DtpB [1]): Peptide affinity is color-coded with AF having the highest affinity

- Kd (DtpB [4]): 100 ± 40 µM
SMILES: C[C@H](N)C(=O)N[C@@H](Cc1c[nH]cn1)C(=O)O [AH] (H-Ala-His-OH)

- Kd (DtpB [4]): 1770 ± 90 µM
SMILES: C[C@H](N)C(=O)N[C@@H](CCCCN)C(=O)O [AK] (H-Ala-Lys-OH)
